The results in this text go back to ChEMBL document CHEMBL4390671, “FragLites-Minimal, Halogenated Fragments Displaying Pharmacophore Doublets. An Efficient Approach to Druggability Assessment and Hit Generation” (J Med Chem, 2019).

SMILES strings stand for the structures. Calls of active or inactive are those of the source. The calls are words filed in the database; no cut-off is given here.

Test [1] concerns the target T1, Cyclin-dependent kinase 2 (Homo sapiens, UniProt P24941). Put plainly: Binding affinity to full-length human CDK2 expressed in Escherichia coli BL21 (DE3) pLysS cells at 5 mM by isothermal titration calorimetry. For orientation: ITC needs no label: the signal is the heat of the interaction.
Test [2] has as its target T1, Cyclin-dependent kinase 2. Put plainly: Binding affinity to full-length human CDK2 expressed in Escherichia coli BL21 (DE3) pLysS cells at 1 to 5 mM by isothermal titration calorimetry.
For test [3], the target named is T1, Cyclin-dependent kinase 2. Put plainly: Binding affinity to full-length human CDK2 expressed in Escherichia coli BL21 (DE3) pLysS cells by isothermal titration calorimetry.

`Brc1cn[nH]c1`: in test [1], the outcome was inactive. Consider `Nc1nc(Oc2cccc(CC(=O)O)c2)c2nc[nH]c2n1`, for which, in test [2], the outcome was inactive. A word on the Kd: it is a measure of binding affinity in units of concentration. The low end stands for higher affinity, the high end for lower affinity. As for `Nc1nc(-c2cccc(CC(=O)O)c2)c2nc[nH]c2n1`, in test [3], the Activity entry is “Dose-dependent effect” and the Kd was 50 µM.

As to `NS(=O)(=O)c1ccc(Br)cc1`, the outcome in test [1] was inactive. On to `Nc1nc(I)c2nc[nH]c2n1`, for which the affinity in test [3], expressed as Kd, was 350 µM.
